Measurements from BindingDB's records for doi:10.1016/j.ejmech.2014.06.016 (Ocean University of China, 2014).

Assay: Inhibition of p-glycoprotein in human MDA435/LCC6MDR cells assessed as concentration required to reduce taxol IC50 by half after 5 days by MTS assay

EC50 [µM]	SMILES
0.213	CCN(CC)c1ccc(Cc2c(Cc3ccc(OC)c(OC)c3)nc(NC(=O)c3cc(OC)c(OC)c(OC)c3)n2C)cc1
0.211	CCN(CC)c1ccc(Cc2c(Cc3ccc(OC)c(OC)c3)nc(N(C(=O)/C=C/c3cc(OC)c(OC)c(OC)c3)C(=O)/C=C/c3cc(OC)c(OC)c(OC)c3)n2C)cc1
